Test results from US12522594B2, “2-heteroaryl-3-oxo-2,3-dihydropyridazine-4-carboxamides for the treatment of cancer” (Deutsches Krebsforschungszentrum, priority 2017, dated 2026).

Assays:
AHR [1] = molecular target: T1, AHR (Homo sapiens, UniProt P35869); assay: In vitro assay 1: antagonism in human cell line (transactivation assay, U87 cells prestimulated with kynurenic acid, DRE firefly luciferase reporter); type: cell-based; parameters: host or cells: U87 glioblastoma cells, stably transfected with DRE firefly luciferase and renilla reporter constructs; details: 150 uM kynurenic acid, 20 hours, read-out: Assay 1: AHR-luc Hum Antagonism IC50
T1 sequence (P35869 11-848): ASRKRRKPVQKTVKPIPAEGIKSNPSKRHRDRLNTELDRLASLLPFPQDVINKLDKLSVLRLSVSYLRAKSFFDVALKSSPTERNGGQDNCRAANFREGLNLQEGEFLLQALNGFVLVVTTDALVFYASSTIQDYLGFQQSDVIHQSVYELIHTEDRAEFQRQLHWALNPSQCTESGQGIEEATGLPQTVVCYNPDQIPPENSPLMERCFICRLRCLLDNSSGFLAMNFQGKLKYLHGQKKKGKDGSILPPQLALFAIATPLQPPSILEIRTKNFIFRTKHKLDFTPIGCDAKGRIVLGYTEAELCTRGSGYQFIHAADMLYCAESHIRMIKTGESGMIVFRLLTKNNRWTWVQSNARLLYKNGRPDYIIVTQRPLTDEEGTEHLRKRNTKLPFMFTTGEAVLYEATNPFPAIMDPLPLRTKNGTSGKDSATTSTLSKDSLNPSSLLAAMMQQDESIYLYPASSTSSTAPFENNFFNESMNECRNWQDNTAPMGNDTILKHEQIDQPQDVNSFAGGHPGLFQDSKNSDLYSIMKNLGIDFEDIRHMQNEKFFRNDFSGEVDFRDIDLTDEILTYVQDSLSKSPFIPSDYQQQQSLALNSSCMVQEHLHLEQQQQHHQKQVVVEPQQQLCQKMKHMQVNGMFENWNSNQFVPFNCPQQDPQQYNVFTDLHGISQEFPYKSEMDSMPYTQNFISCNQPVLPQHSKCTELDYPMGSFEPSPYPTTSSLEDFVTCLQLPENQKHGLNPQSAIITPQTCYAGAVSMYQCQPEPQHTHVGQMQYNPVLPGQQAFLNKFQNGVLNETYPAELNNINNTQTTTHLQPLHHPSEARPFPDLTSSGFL
Procedure: (§1) Transactivation Assay in Human Cell Line (In Vitro Assays 1 and 2)
(§2) Transactivation assays were carried out in U87 glioblastoma cells (ATCC) endogenously expressing AHR. In addition the cells were stably transfected with an AHR inducible firefly luciferase reporter gene construct that carried AHR-binding sites (DRE) in its promoter and a renilla reporter gene construct with constitutively active promoter. Kynurenic acid is an endogenous AHR activating ligand and was used to prestimulate test cells prior to testing the antagonistic properties of compounds.
In Vitro Assay 1: Antagonism in Human Cell Line
Normalization was done by positive and negative controls.

AHR [2] = molecular target: T1, AHR; assay: In vitro assay 2: agonism in human cell line (transactivation assay, U87 cells, DRE firefly luciferase reporter); type: cell-based; parameters: host or cells: U87 glioblastoma cells, stably transfected with DRE firefly luciferase and renilla reporter constructs; details: no kynurenic acid, 20 hours, read-out: Assay 2: AHR-luc Hum Agonism IC50
Procedure: as §1, §2
In Vitro Assay 2: Agonism in Human Cell Line
As positive activation control cells were incubated with 300 uM kynurenic acid. Normalization was done by positive and negative controls.

Compound | IC50 (AHR [1]) | IC50 (AHR [2])
O=C(N[C@H]1COC[C@H]1O)c1cc(-c2ccc(OC(F)(F)F)cc2)nn(-c2cccnc2)c1=O (relative stereo) [Example 157, N-[(cis)-4-Hydroxytetrahydrofuran-3-yl]-3-oxo-2-(pyridin-3-yl)-6-[4-(trifluoromethoxy)phenyl]-2,3-dihydropyridazine-4-carboxamide] | 39.3 nM | > 20000 nM
C[C@@H](CO)NC(=O)c1cc(-c2ccc(Cl)cc2F)nn(-c2cccnc2)c1=O [Example 163, 6-(4-Chloro-2-fluorophenyl)-N-[(2S)-1-hydroxypropan-2-yl]-3-oxo-2-(pyridin-3-yl)-2,3-dihydropyridazine-4-carboxamide] | 134 nM | > 20000 nM
O=C(N[C@H]1COC[C@@H]1O)c1cc(-c2ccc(Cl)cc2)nn(-c2cncc(F)c2)c1=O (single isomer, unassigned; enantiomer 1) [Example 155, 6-(4-Chlorophenyl)-2-(5-fluoropyridin-3-yl)-N-[(trans)-4-hydroxytetrahydrofuran-3-yl]-3-oxo-2,3-dihydropyridazine-4-carboxamide, Enantiomer 1] | 90.5 nM | > 20000 nM
C[C@@H](CO)NC(=O)c1cc(-c2ccc(Cl)cc2)nn(-c2csc(Cl)c2)c1=O [Example 243, 6-(4-Chlorophenyl)-2-(5-chloro-3-thienyl)-N-[(2S)-1-hydroxypropan-2-yl]-3-oxo-2,3-dihydropyridazine-4-carboxamide] | 11.8 nM | > 20000 nM
O=C(NCC1(O)CCC1)c1cc(-c2ccc(Cl)cc2)nn(-c2cnsc2)c1=O [Example 200, 6-(4-Chlorophenyl)-N-[(1-hydroxycyclobutyl)methyl]-3-oxo-2-(1,2-thiazol-4-yl)-2,3-dihydropyridazine-4-carboxamide] | 0.734 nM | > 20000 nM
O=C(N[C@H]1CCCC(F)(F)[C@@H]1O)c1cc(-c2ccc(Cl)cc2)nn(-c2cccnc2)c1=O (single isomer, unassigned; enantiomer 2) [Example 145, 6-(4-Chlorophenyl)-N-[(trans)-3,3-difluoro-2-hydroxycyclohexyl]-3-oxo-2-(pyridin-3-yl)-2,3-dihydropyridazine-4-carboxamide, Enantiomer 2] | 6.9 nM | > 20000 nM
O=C(NC[C@H](O)C(F)(F)F)c1cc(-c2ccc(Cl)cc2)nn(-c2cncc(F)c2)c1=O [Example 128, 6-(4-Chlorophenyl)-2-(5-fluoropyridin-3-yl)-3-oxo-N-[(2S)-3,3,3-trifluoro-2-hydroxypropyl]-2,3-dihydropyridazine-4-carboxamide] | 5.05 nM | > 20000 nM
O=C(N[C@H]1CCC[C@H]1O)c1cc(-c2ccc(Cl)cc2)nn(-c2cncc(F)c2)c1=O [Example 129, 6-(4-Chlorophenyl)-2-(5-fluoropyridin-3-yl)-N-[(1S,2R)-2-hydroxycyclopentyl]-3-oxo-2,3-dihydropyridazine-4-carboxamide] | 5.53 nM | > 20000 nM
O=C(NC[C@H](O)C(F)(F)F)c1cc(-c2ccc(Cl)cc2)nn(-c2cnoc2)c1=O [Example 235, 6-(4-Chlorophenyl)-2-(1,2-oxazol-4-yl)-3-oxo-N-[(2S)-3,3,3-trifluoro-2-hydroxypropyl]-2,3-dihydropyridazine-4-carboxamide] | 8.87 nM | > 20000 nM
Cn1cc(-n2nc(-c3ccc(C(F)(F)F)cc3)cc(C(=O)NC[C@H](O)C(F)F)c2=O)cn1 [Example 219, N-[(2S)-3,3-Difluoro-2-hydroxypropyl]-2-(1-methyl-1H-pyrazol-4-yl)-3-oxo-6-[4-(trifluoromethyl)phenyl]-2,3-dihydropyridazine-4-carboxamide] | 3.21 nM | > 20000 nM

The remaining lines, values ahead:

IC50 (AHR [1]) | IC50 (AHR [2]) | Compound
32 nM | > 20000 nM | O=C(N[C@@H]1COC[C@@H]1O)c1cc(-c2ccc(C(F)F)cc2)nn(-c2cccnc2)c1=O (single isomer, unassigned) [Example 318, 6-[4-(Difluoromethyl)phenyl]-N-[(cis)-4-hydroxy-tetrahydrofuran-3-yl]-3-oxo-2-(pyridin-3-yl)-2,3-dihydropyridazine-4-carboxamide]
875 nM | > 20000 nM | Cn1cc(-n2nc(-c3ccc(Cl)cc3)cc(C(=O)N[C@H](CO)C(N)=O)c2=O)cn1 [Example 289, N-[(2R)-1-Amino-3-hydroxy-1-oxopropan-2-yl]-6-(4-chlorophenyl)-2-(1-methyl-1H-pyrazol-4-yl)-3-oxo-2,3-dihydropyridazine-4-carboxamide]
26.3 nM | > 20000 nM | COC[C@@H](CO)NC(=O)c1cc(-c2ccc(C(F)(F)F)cc2)nn(-c2cccnc2)c1=O [Example 257, N-[(2R)-1-Hydroxy-3-methoxypropan-2-yl]-3-oxo-2-(pyridin-3-yl)-6-[4-(trifluoromethyl)phenyl]-2,3-dihydropyridazine-4-carboxamide]
41.9 nM | > 20000 nM | O=C(NCC1(O)CC1)c1cc(-c2ccc(Cl)cc2)nn(-c2cccnc2)c1=O [Example 263, 6-(4-Chlorophenyl)-N-[(1-hydroxycyclopropyl)methyl]-3-oxo-2-(pyridin-3-yl)-2,3-dihydropyridazine-4-carboxamide]
261 nM | > 20000 nM | O=C(N[C@@H]1CC[C@@H]1O)c1cc(-c2ccc(Cl)cc2)nn(-c2cccnc2)c1=O (single isomer, unassigned) [Example 281, (−)-6-(4-Chlorophenyl)-N-cis-2-hydroxycyclobutyl-3-oxo-2-(pyridin-3-yl)-2,3-dihydropyridazine-4-carboxamide]
91.1 nM | > 20000 nM | C[C@@H](CO)NC(=O)c1cc(-c2ccc(Cl)cc2)nn(-c2cnn(C(F)F)c2)c1=O [Example 272, 6-(4-Chlorophenyl)-2-[1-(difluoromethyl)-1H-pyrazol-4-yl]-N-[(2S)-1-hydroxypropan-2-yl]-3-oxo-2,3-dihydropyridazine-4-carboxamide]
72 nM | > 20000 nM | O=C(N[C@H](CO)C(F)(F)F)c1cc(-c2ccc(Cl)cc2)nn(-c2cncnc2)c1=O [Example 271, 6-(4-Chlorophenyl)-3-oxo-2-(pyrimidin-5-yl)-N-[(2R)-1,1,1-trifluoro-3-hydroxypropan-2-yl]-2,3-dihydropyridazine-4-carboxamide]
49.7 nM | > 20000 nM | C[C@H](NC(=O)c1cc(-c2ccc(C(F)(F)F)nc2)nn(-c2cncc(F)c2)c1=O)C(C)(C)O [Example 340, 2-(5-Fluoropyridin-3-yl)-N-[(2S)-3-hydroxy-3-methylbutan-2-yl]-3-oxo-6-[6-(trifluoromethyl)pyridin-3-yl]-2,3-dihydropyridazine-4-carboxamide]
571 nM | > 20000 nM | C[C@H](NC(=O)c1cc(-c2ccc(CF)cc2)nn(-c2cnn(C)c2)c1=O)C(C)(C)O [Example 284, 6-[4-(Fluoromethyl)phenyl]-N-[(2S)-3-hydroxy-3-methylbutan-2-yl]-2-(1-methyl-1H-pyrazol-4-yl)-3-oxo-2,3-dihydropyridazine-4-carboxamide]
61.7 nM | > 20000 nM | CC(C)(O)CNC(=O)c1cc(-c2ccc(Cl)cc2)nn(-c2cnoc2)c1=O [Example 269, 6-(4-Chlorophenyl)-N-(2-hydroxy-2-methylpropyl)-2-(1,2-oxazol-4-yl)-3-oxo-2,3-dihydropyridazine-4-carboxamide]
20.8 nM | > 20000 nM | CC(C)[C@@H](CO)NC(=O)c1cc(-c2ccc(C(F)(F)F)nc2)nn(-c2cncc(F)c2)c1=O [Example 337, 2-(5-Fluoropyridin-3-yl)-N-[(2S)-1-hydroxy-3-methylbutan-2-yl]-3-oxo-6-[6-(trifluoromethyl)pyridin-3-yl]-2,3-dihydropyridazine-4-carboxamide]
242 nM | > 20000 nM | C[C@@H](NC(=O)c1cc(-c2ccc(Cl)cc2)nn(-c2cn[nH]c2)c1=O)C(C)(C)O [Example 325, 6-(4-Chlorophenyl)-N-[(2R)-3-hydroxy-3-methylbutan-2-yl]-3-oxo-2-(1H-pyrazol-4-yl)-2,3-dihydropyridazine-4-carboxamide]
